Results from article PMC8353271, “Functional Characterization of Olfactory Receptors in the Thyroid Gland” (Frontiers in Physiology, 2021).

Biological target: T1, OR2H2 (Homo sapiens, UniProt O95918)
T1 sequence (O95918 1-312): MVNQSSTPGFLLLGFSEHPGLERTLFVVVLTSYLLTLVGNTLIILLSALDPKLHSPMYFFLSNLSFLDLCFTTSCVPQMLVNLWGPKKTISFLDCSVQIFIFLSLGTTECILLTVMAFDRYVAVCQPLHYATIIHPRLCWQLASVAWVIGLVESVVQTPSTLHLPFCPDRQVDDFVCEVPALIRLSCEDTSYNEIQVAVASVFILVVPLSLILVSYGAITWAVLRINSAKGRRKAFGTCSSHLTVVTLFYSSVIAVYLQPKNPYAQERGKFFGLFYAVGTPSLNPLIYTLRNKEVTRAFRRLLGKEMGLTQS
Assay: Fura-2 Ca2+ imaging in Nthy-ori […]-1 cells (endogenous receptor), response reduced by CRISPR/Cas9 OR2H2 knockout; cAMP assay
Type: cell-based

aldehyde 13-13
EC50: 366 µM
